Measurements taken from PubChem BioAssay (NCI).
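Grown in 96-well plates, cells were treated for 48 hours with each compound at five concentrations. Insufficient inhibition: endpoint recorded as highest concentration tested. TGI is the concentration that stops growth completely.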

How the values were obtained:
Assay in all cases: NCI tumour cell line growth inhibition, 48 h
HCC-2998 colon = tested on: HCC-2998 colon
SK-MEL-28 melanoma = tested on: SK-MEL-28 melanoma
TK-10 renal = tested on: TK-10 renal
HCT-116 colon = tested on: HCT-116 colon
UACC-257 melanoma = tested on: UACC-257 melanoma
SF-268 CNS = tested on: SF-268 CNS
OVCAR-3 ovarian = tested on: OVCAR-3 ovarian
A498 renal = tested on: A498 renal
KM12 colon = tested on: KM12 colon
IGROV1 ovarian = tested on: IGROV1 ovarian
XF 498 CNS = tested on: XF 498 CNS
OVCAR-4 ovarian = tested on: OVCAR-4 ovarian
K-562 leukemia = tested on: K-562 leukemia
786-0 renal = tested on: 786-0 renal
NCI-H226 lung = tested on: NCI-H226 lung
M14 melanoma = tested on: M14 melanoma
SF-539 CNS = tested on: SF-539 CNS
NCI-H23 lung = tested on: NCI-H23 lung
ACHN renal = tested on: ACHN renal
UACC-62 melanoma = tested on: UACC-62 melanoma
LXFL 529 NSCLC = tested on: LXFL 529 NSCLC
SF-295 CNS = tested on: SF-295 CNS
UO-31 renal = tested on: UO-31 renal
SK-MEL-5 melanoma = tested on: SK-MEL-5 melanoma
SR leukemia = tested on: SR leukemia
NCI-H460 lung = tested on: NCI-H460 lung
SNB-78 CNS = tested on: SNB-78 CNS
LOX IMVI melanoma = tested on: LOX IMVI melanoma
RXF 393 renal = tested on: RXF 393 renal
DLD-1 colon = tested on: DLD-1 colon
EKVX NSCLC = tested on: EKVX NSCLC
CCRF-CEM leukemia = tested on: CCRF-CEM leukemia
HT29 colon = tested on: HT29 colon
HOP-18 NSCLC = tested on: HOP-18 NSCLC
A549 NSCLC = tested on: A549 NSCLC
KM20L2 colon = tested on: KM20L2 colon
SN12C renal = tested on: SN12C renal
HCT-15 colon = tested on: HCT-15 colon
RPMI-8226 leukemia = tested on: RPMI-8226 leukemia
SNB-19 CNS = tested on: SNB-19 CNS
DMS 114 small cell lung = tested on: DMS 114 small cell lung
MALME-3M melanoma = tested on: MALME-3M melanoma
DMS 273 small cell lung = tested on: DMS 273 small cell lung
SNB-75 CNS = tested on: SNB-75 CNS
CAKI-1 renal = tested on: CAKI-1 renal
HL-60(TB) leukemia = tested on: HL-60(TB) leukemia
SK-MEL-2 melanoma = tested on: SK-MEL-2 melanoma
OVCAR-8 ovarian = tested on: OVCAR-8 ovarian
U251 CNS = tested on: U251 CNS
MOLT-4 leukemia = tested on: MOLT-4 leukemia
HOP-92 NSCLC = tested on: HOP-92 NSCLC
HOP-62 NSCLC = tested on: HOP-62 NSCLC
M19-MEL melanoma = tested on: M19-MEL melanoma
OVCAR-5 ovarian = tested on: OVCAR-5 ovarian
SK-OV-3 ovarian = tested on: SK-OV-3 ovarian
COLO 205 colon = tested on: COLO 205 colon
RXF-631 renal = tested on: RXF-631 renal
SW-620 colon = tested on: SW-620 colon

Measured: TGI

COc1cc2c(OC)cc1CSCc1sc(C)c(c1Br)CSC2
> 100 µM: all assays above

Cc1ccc(S(=O)(=O)c2ccc(N)cc2)cc1
not listed: SF-268 CNS | NCI-H226 lung | SR leukemia | LOX IMVI melanoma | HOP-18 NSCLC | SN12C renal | SNB-19 CNS | DMS 114 small cell lung | HOP-92 NSCLC | COLO 205 colon
> 100 µM: all other assays above
